Measurements reported in ChEMBL document CHEMBL3046966, “Structure and Fungicidal Activities of 2-Methoxyimino-N-methyl-2-[2-(substituted pyridyloxymethyl)phenyl]acetamide Derivatives” (1998).

Key:
Type in all cases: functional
[1] = test system: Pseudoperonospora cubensis; assay: Fungicidal activity against Pseudoperonospora cubensis assessed as cucumber downy mildew disease control at 31.3 ppm foliar application 24 hr after inoculation by preventive manner
[2] = test system: Blumeria graminis f. sp. tritici; assay: Fungicidal activity against Blumeria graminis f. sp. tritici assessed as wheat powdery mildew disease control at 7.8 ppm foliar application for 24 hr before inoculation by preventive manner
[3] = test system: Podosphaera fuliginea; assay: Fungicidal activity against Podosphaera fuligineas assessed as cucumber […] mildew disease control at 31.3 ppm foliar application 24 hr after inoculation by curative manner
[4] = test system: Pyricularia oryzae; assay: Fungicidal activity against Magnaporthe oryzae assessed as rice blast disease control at 125 ppm foliar application for 24 hr before inoculation by preventive manner
[5] = test system: Botrytis cinerea; assay: Fungicidal activity against Botryotinia fuckeliana assessed as cucumber gray mold disease control at 2 ppm foliar application 24 hr after inoculation by curative manner
[6] = test system: Blumeria graminis f. sp. tritici; assay: Fungicidal activity against Blumeria graminis f. sp. tritici assessed as wheat powdery mildew disease control at 2 ppm foliar application for 24 hr after inoculation by curative manner
[7] = test system: Botrytis cinerea; assay: Fungicidal activity against Botryotinia fuckeliana assessed as cucumber gray mold disease control at 2 ppm foliar application 24 hr before inoculation by preventive manner
[8] = test system: Pseudoperonospora cubensis; assay: Fungicidal activity against Pseudoperonospora cubensis assessed as cucumber downy mildew disease control at 7.8 ppm foliar application 24 hr after inoculation by curative manner
[9] = test system: Podosphaera fuliginea; assay: Fungicidal activity against Podosphaera fuligineas assessed as cucumber […] mildew disease control at 31.3 ppm foliar application 24 hr before inoculation by preventive manner
[10] = test system: Pyricularia oryzae; assay: Fungicidal activity against Magnaporthe oryzae assessed as rice blast disease control at 31.3 ppm foliar application for 24 hr after inoculation by curative manner
[11] = test system: Podosphaera fuliginea; assay: Fungicidal activity against Podosphaera fuligineas assessed as cucumber […] mildew disease control at 7.8 ppm foliar application 24 hr before inoculation by preventive manner
[12] = test system: Podosphaera fuliginea; assay: Fungicidal activity against Podosphaera fuligineas assessed as cucumber […] mildew disease control at 2 ppm foliar application 24 hr after inoculation by curative manner
[13] = test system: Blumeria graminis f. sp. tritici; assay: Fungicidal activity against Blumeria graminis f. sp. tritici assessed as wheat powdery mildew disease control at 2 ppm foliar application for 24 hr before inoculation by preventive manner
[14] = test system: Pyricularia oryzae; assay: Fungicidal activity against Magnaporthe oryzae assessed as rice blast disease control at 2 ppm foliar application for 24 hr after inoculation by curative manner
[15] = test system: Botrytis cinerea; assay: Fungicidal activity against Botryotinia fuckeliana assessed as cucumber gray mold disease control at 7.8 ppm foliar application 24 hr before inoculation by preventive manner
[16] = test system: Pseudoperonospora cubensis; assay: Fungicidal activity against Pseudoperonospora cubensis assessed as cucumber downy mildew disease control at 31.3 ppm foliar application 24 hr after inoculation by curative manner
[17] = test system: Pyricularia oryzae; assay: Fungicidal activity against Magnaporthe oryzae assessed as rice blast disease control at 2 ppm foliar application for 24 hr before inoculation by preventive manner
[18] = test system: Podosphaera fuliginea; assay: Fungicidal activity against Podosphaera fuligineas assessed as cucumber […] mildew disease control at 2 ppm foliar application 24 hr before inoculation by preventive manner
[19] = test system: Pyricularia oryzae; assay: Fungicidal activity against Magnaporthe oryzae assessed as rice blast disease control at 7.8 ppm foliar application for 24 hr after inoculation by curative manner
[20] = test system: Pseudoperonospora cubensis; assay: Fungicidal activity against Pseudoperonospora cubensis assessed as cucumber downy mildew disease control at 7.8 ppm foliar application 24 hr after inoculation by preventive manner
[21] = test system: Pseudoperonospora cubensis; assay: Fungicidal activity against Pseudoperonospora cubensis assessed as cucumber downy mildew disease control at 2 ppm foliar application 24 hr after inoculation by curative manner
[22] = test system: Pyricularia oryzae; assay: Fungicidal activity against Magnaporthe oryzae assessed as rice blast disease control at 7.8 ppm foliar application for 24 hr before inoculation by preventive manner
[23] = test system: Botrytis cinerea; assay: Fungicidal activity against Botryotinia fuckeliana assessed as cucumber gray mold disease control at 31.3 ppm foliar application 24 hr after inoculation by curative manner
[24] = test system: Botrytis cinerea; assay: Fungicidal activity against Botryotinia fuckeliana assessed as cucumber gray mold disease control at 31.3 ppm foliar application 24 hr before inoculation by preventive manner
[25] = test system: Blumeria graminis f. sp. tritici; assay: Fungicidal activity against Blumeria graminis f. sp. tritici assessed as wheat powdery mildew disease control at 7.8 ppm foliar application for 24 hr after inoculation by curative manner
[26] = test system: Pseudoperonospora cubensis; assay: Fungicidal activity against Pseudoperonospora cubensis assessed as cucumber downy mildew disease control at 2 ppm foliar application 24 hr before inoculation by preventive manner
[27] = test system: Botrytis cinerea; assay: Fungicidal activity against Botryotinia fuckeliana assessed as cucumber gray mold disease control at 7.8 ppm foliar application 24 hr after inoculation by curative manner
[28] = test system: Pyricularia oryzae; assay: Fungicidal activity against Magnaporthe oryzae assessed as rice blast disease control at 125 ppm foliar application for 24 hr after inoculation by curative manner
[29] = test system: Botrytis cinerea; assay: Fungicidal activity against Botryotinia fuckeliana assessed as cucumber gray mold disease control at 125 ppm foliar application 24 hr before inoculation by preventive manner
[30] = test system: Pseudoperonospora cubensis; assay: Fungicidal activity against Pseudoperonospora cubensis assessed as cucumber downy mildew disease control at 125 ppm foliar application 24 hr after inoculation by preventive manner
[31] = test system: Blumeria graminis f. sp. tritici; assay: Fungicidal activity against Blumeria graminis f. sp. tritici assessed as wheat powdery mildew disease control at 31.3 ppm foliar application for 24 hr before inoculation by preventive manner
[32] = test system: Blumeria graminis f. sp. tritici; assay: Fungicidal activity against Blumeria graminis f. sp. tritici assessed as wheat powdery mildew disease control at 125 ppm foliar application for 24 hr after inoculation by curative manner
[33] = test system: Podosphaera fuliginea; assay: Fungicidal activity against Podosphaera fuligineas assessed as cucumber […] mildew disease control at 7.8 ppm foliar application 24 hr after inoculation by curative manner
[34] = test system: Botrytis cinerea; assay: Fungicidal activity against Botryotinia fuckeliana assessed as cucumber gray mold disease control at 125 ppm foliar application 24 hr after inoculation by curative manner
[35] = test system: Pyricularia oryzae; assay: Fungicidal activity against Magnaporthe oryzae assessed as rice blast disease control at 31.3 ppm foliar application for 24 hr before inoculation by preventive manner
[36] = test system: Blumeria graminis f. sp. tritici; assay: Fungicidal activity against Blumeria graminis f. sp. tritici assessed as wheat powdery mildew disease control at 31.3 ppm foliar application for 24 hr after inoculation by curative manner

| Structure (SMILES) | Activity [2] | Activity [4] | Activity [5] | Activity [6] | Activity [10] | Activity [11] | Activity [12] | Activity [13] | Activity [15] | Activity [16] | Activity [18] | Activity [19] | Activity [21] | Activity [22] | Activity [23] | Activity [30] | further results |
| --- | --- | --- | --- | --- | --- | --- | --- | --- | --- | --- | --- | --- | --- | --- | --- | --- | --- |
| CNC(=O)/C(=N/OC)c1ccccc1COc1ccc(Cl)cn1 | 90% | 90% | 90% | 90% | 90% |  |  |  |  |  |  |  |  |  |  |  | Activity [1]: 90%; Activity [3]: 90%; Activity [7]: 90%; Activity [8]: 90%; Activity [9]: 90% |
| CNC(=O)/C(=N/OC)c1ccccc1COc1ncccc1C(F)(F)F |  |  | 90% | 90% |  | 90% | 90% | 90% | 90% | 90% |  |  |  |  |  |  | Activity [1]: 90%; Activity [14]: 90%; Activity [17]: 90% |
| CNC(=O)/C(=N/OC)c1ccccc1COc1ncc(C(F)(F)F)cc1Cl |  |  | 90% | 90% |  |  | 90% | 90% |  |  | 90% | 90% | 90% | 90% |  |  | Activity [20]: 90%; Activity [7]: 90% |
| CNC(=O)/C(=N/OC)c1ccccc1COc1ncc(Cl)cc1Cl | 90% |  |  |  | 90% |  | 90% |  |  |  | 90% |  | 90% | 90% | 90% |  | Activity [24]: 90%; Activity [25]: 90%; Activity [26]: 90% |
| CNC(=O)/C(=N/OC)c1ccccc1COc1ncc(Cl)cc1C(F)(F)F |  |  | 90% | 90% |  |  | 90% | 90% | 90% |  | 90% | 90% | 90% | 90% |  |  | Activity [20]: 90% |
| CNC(=O)/C(=N/OC)c1ccccc1COc1nc(Cl)ccc1C(F)(F)F |  |  |  | 90% |  |  | 90% | 90% | 90% |  | 90% | 90% | 90% | 90% |  |  | Activity [27]: 90%; Activity [26]: 90% |
| CNC(=O)/C(=N/OC)c1ccccc1COc1ccc(C(F)(F)F)c(OC(C)C)n1 |  | 90% |  |  |  | 90% |  |  |  | 90% |  |  |  |  |  | <90% | Activity [28]: 90%; Activity [29]: <90%; Activity [31]: 90%; Activity [32]: 90%; Activity [33]: 90%; Activity [34]: <90% |
| CNC(=O)/C(=N/OC)c1ccccc1COc1nc(Cl)c(C(F)(F)F)cc1Cl | 90% |  |  | 90% | 90% |  | 90% |  | 90% |  | 90% |  | 90% |  | 90% | 90% | Activity [35]: 90% |
| CNC(=O)/C(=N/OC)c1ccccc1COc1ccccn1 | 90% | <90% |  |  |  | 90% |  |  |  | 90% |  |  |  |  | 90% | 90% | Activity [28]: <90%; Activity [36]: 90%; Activity [3]: 90%; Activity [24]: 90% |
